Key:
Assay type in all cases: biochemical
Jnk3 = molecular target: T1, Jnk3 (Homo sapiens, UniProt P53779); assay: AlphaScreen kinase assay, Jnk3; conditions: read-out: IC50, activity toward kinase Jnk3
T1 construct: purchased Upstate Biotechnology

Kit = molecular target: T2, Kit (Homo sapiens, UniProt P10721); assay: AlphaScreen kinase assay, Kit; conditions: read-out: IC50, activity toward kinase Kit
T2 construct: P1332.N6 BI PTP KIT M552-K948-X COD; His6 (N); made in house; host or cells: E. coli (PTP1B co-expressed)

Flt1 = molecular target: T3, Flt1 (Homo sapiens, UniProt P17948); assay: AlphaScreen kinase assay, Flt1; conditions: read-out: IC50, activity toward kinase Flt1
T3 construct: P1826.pETN6 BI-PTP FLT1 M799-D1165-X WT; His6 (N); made in house; host or cells: E. coli (PTP1B co-expressed)
T3 sequence (P17948 with tags, fused parts or gaps): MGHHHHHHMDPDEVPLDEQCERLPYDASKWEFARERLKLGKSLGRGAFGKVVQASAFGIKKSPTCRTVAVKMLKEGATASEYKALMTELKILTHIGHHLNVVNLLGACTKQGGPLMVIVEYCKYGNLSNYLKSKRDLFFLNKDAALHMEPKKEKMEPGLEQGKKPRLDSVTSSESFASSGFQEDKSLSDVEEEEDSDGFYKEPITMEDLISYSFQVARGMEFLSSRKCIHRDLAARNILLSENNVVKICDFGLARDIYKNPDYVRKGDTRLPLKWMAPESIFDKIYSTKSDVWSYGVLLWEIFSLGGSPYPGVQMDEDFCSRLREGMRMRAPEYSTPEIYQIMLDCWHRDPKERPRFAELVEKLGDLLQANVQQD

Akt3 = Akt3 (Homo sapiens, UniProt Q9Y243); assay: AlphaScreen kinase assay, Akt3; conditions: read-out: IC50, activity toward kinase Akt3
Chain of Akt3 (Q9Y243 whole entry): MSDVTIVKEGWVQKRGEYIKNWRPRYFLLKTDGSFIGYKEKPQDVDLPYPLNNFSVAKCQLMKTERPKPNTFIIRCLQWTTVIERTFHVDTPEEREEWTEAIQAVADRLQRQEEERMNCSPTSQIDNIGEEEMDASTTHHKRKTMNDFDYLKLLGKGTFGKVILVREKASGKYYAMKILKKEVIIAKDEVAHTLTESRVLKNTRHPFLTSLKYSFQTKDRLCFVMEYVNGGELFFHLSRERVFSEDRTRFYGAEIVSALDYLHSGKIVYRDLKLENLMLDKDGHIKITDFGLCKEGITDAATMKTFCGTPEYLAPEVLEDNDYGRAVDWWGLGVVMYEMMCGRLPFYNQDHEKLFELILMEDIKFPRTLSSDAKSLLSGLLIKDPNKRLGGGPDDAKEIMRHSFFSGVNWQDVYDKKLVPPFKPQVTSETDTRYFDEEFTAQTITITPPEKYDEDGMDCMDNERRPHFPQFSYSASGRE
Source text: AlphaScreen assay was used to screen additional kinases. The assay is similarly dependent on the phosphorylation of a peptide substrate. In this assay, an antibody that recognizes phosphorylated substrate is bound to an acceptor bead. The peptide substrate is attached to biotin, which binds to a donor head that contains streptavidin. Thus phosphorylated substrate is bound by antibody and streptavidin, bringing the donor and acceptor heads into close proximity when kinase is not inhibited. The donor produces singlet oxygen which results in emission from the acceptor when they are in close proximity. Conversely, when kinase is inhibited, the donor and acceptor beads are not associated and the emission from the acceptor is reduced.
AlphaScreen assays were done using compounds dissolved in DMSO to a concentration of 20 mM. The compounds were diluted accordingly to the desired final concentrations in each sample well, using 1:3 serial dilution for a total of 8 concentration points.

B-Raf V600E = molecular target: T4, B-Raf V600E (Homo sapiens, UniProt P15056, V600E); assay: AlphaScreen kinase assay, B-Raf V600E; conditions: read-out: IC50, activity toward kinase B-Raf V600E
T4 construct: P4254. pFastBacBD-CDC37 BRAF D437-K722-X, V600E; His6 with pFastBac HT leader (TEV site) (N); made in house; host or cells: Sf9 (baculovirus; chaperone CDC37 co-expressed)
T4 sequence (P15056 with tags, fused parts or gaps V600E): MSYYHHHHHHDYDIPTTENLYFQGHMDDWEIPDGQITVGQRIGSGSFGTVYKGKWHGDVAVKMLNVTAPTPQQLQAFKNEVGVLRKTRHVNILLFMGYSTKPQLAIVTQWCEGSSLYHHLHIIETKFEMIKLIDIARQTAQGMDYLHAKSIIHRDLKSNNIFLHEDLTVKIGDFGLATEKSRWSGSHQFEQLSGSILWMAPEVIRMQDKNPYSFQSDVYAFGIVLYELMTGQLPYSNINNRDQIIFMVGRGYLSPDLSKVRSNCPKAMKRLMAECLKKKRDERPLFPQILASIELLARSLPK

MAP4K4 = MAP4K4 (Homo sapiens, UniProt O95819); assay: AlphaScreen kinase assay, MAP4K4; conditions: read-out: IC50, activity toward kinase MAP4K4
B-Raf = molecular target: T5, B-Raf (Homo sapiens, UniProt P15056); assay: AlphaScreen kinase assay, B-Raf; conditions: read-out: IC50, activity toward kinase B-Raf
T5 construct: purchased Upstate Biotechnology
T5 sequence (P15056 whole entry): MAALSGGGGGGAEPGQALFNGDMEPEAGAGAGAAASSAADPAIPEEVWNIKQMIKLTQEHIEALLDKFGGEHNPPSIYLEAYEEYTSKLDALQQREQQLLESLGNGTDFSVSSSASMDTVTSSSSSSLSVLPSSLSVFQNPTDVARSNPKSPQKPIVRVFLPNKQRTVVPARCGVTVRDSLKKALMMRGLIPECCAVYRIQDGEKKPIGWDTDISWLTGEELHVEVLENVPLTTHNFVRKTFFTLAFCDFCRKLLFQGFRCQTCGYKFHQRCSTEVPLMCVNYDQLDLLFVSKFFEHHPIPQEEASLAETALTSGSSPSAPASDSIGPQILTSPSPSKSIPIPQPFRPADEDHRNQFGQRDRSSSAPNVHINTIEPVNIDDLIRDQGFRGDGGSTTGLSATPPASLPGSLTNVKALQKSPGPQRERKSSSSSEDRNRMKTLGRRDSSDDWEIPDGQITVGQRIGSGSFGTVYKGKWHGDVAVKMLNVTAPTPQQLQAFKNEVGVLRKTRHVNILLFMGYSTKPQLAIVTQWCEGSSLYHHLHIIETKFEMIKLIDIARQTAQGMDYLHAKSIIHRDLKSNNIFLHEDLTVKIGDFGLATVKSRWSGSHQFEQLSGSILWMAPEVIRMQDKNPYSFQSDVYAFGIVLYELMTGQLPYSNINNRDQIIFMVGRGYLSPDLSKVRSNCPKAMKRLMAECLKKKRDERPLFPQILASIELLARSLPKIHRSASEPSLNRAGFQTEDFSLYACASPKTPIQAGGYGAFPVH

c-Raf-1 = molecular target: T6, c-Raf-1 (Homo sapiens, UniProt P04049); assay: AlphaScreen kinase assay, c-Raf-1; conditions: read-out: IC50, activity toward kinase c-Raf-1
T6 construct: purchased Upstate Biotechnology
T6 sequence (P04049 whole entry): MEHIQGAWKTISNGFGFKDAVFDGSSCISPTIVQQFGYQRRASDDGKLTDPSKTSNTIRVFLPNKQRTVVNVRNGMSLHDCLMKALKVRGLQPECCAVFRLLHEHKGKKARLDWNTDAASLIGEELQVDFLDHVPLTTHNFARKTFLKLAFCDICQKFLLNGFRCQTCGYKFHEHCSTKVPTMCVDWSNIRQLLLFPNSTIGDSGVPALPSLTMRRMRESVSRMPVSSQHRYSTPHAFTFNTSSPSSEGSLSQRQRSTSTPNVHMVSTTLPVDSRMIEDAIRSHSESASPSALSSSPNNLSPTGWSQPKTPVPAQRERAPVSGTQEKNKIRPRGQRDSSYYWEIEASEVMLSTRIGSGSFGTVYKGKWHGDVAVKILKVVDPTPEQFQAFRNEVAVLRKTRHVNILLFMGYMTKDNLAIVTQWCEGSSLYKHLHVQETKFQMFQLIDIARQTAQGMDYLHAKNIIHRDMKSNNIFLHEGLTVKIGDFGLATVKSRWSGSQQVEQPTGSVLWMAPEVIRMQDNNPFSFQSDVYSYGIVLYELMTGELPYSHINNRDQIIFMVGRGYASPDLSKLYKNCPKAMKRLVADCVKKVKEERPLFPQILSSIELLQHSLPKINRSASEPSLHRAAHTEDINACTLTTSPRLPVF

Jnk1 = molecular target: T7, Jnk1 (Homo sapiens, UniProt P45983); assay: AlphaScreen kinase assay, Jnk1; conditions: read-out: IC50, activity toward kinase Jnk1
T7 construct: purchased Upstate Biotechnology
T7 sequence (P45983 whole entry): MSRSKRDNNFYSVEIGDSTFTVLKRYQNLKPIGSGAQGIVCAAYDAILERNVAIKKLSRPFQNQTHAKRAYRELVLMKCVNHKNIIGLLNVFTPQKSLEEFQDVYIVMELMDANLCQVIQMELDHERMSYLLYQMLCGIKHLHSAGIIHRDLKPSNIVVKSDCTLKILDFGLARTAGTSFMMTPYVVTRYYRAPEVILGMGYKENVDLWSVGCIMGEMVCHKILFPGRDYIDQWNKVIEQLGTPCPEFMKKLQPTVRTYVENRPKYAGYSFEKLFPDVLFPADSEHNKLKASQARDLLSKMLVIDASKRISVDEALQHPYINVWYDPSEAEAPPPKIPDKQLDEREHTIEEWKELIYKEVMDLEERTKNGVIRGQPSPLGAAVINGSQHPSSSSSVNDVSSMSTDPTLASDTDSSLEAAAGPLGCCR

Src = molecular target: T8, Src (Homo sapiens, UniProt P12931); assay: AlphaScreen kinase assay, Src; conditions: read-out: IC50, activity toward kinase Src
T8 construct: P1144. pET-N6 BI-PTP SRC V86-L536-X; made in house
T8 sequence (P12931 with tags, fused parts or gaps): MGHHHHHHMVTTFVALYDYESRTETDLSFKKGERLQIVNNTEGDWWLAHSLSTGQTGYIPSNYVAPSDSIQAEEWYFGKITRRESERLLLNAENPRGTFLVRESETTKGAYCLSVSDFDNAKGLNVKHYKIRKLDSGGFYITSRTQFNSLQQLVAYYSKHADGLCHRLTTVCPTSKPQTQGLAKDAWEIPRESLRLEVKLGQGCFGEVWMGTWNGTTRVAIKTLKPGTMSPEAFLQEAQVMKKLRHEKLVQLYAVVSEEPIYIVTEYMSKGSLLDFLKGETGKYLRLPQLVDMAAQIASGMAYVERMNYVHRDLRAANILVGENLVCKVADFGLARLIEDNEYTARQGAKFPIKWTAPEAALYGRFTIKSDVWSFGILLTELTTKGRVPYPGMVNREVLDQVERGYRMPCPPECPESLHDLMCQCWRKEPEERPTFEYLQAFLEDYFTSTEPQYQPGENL

Fms = molecular target: T9, Fms (Homo sapiens, UniProt P07333); assay: AlphaScreen kinase assay, Fms; conditions: read-out: IC50, activity toward kinase Fms
T9 construct: purchased Upstate Biotechnology
T9 sequence (P07333 20-972): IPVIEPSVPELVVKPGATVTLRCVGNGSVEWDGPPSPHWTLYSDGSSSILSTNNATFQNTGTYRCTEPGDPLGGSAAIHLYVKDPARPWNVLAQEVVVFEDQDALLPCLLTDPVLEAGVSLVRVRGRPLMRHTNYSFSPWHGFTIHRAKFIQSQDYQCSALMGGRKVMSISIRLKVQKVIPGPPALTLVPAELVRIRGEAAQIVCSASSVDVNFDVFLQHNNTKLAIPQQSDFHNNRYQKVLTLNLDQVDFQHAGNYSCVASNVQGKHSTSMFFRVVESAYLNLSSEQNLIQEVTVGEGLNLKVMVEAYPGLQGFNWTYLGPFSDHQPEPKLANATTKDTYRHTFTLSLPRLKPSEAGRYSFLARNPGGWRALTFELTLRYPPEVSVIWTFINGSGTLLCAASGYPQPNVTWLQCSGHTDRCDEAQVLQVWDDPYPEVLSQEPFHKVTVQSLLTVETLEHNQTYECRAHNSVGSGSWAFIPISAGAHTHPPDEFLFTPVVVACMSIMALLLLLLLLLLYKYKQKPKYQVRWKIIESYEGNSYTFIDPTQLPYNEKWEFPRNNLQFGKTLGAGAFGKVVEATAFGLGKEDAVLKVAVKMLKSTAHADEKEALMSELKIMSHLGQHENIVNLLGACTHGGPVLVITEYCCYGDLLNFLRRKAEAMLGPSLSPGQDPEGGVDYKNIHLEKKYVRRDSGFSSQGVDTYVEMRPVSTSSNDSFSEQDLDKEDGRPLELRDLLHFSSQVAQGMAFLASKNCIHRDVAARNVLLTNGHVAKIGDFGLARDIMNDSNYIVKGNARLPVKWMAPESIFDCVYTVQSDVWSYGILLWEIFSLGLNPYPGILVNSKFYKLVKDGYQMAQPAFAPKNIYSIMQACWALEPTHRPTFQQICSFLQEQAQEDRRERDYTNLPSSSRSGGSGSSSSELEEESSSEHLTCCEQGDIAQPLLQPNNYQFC

FGFR1 = molecular target: T10, FGFR1 (Homo sapiens, UniProt P11362, C488A/C584S); assay: AlphaScreen kinase assay, FGFR1; conditions: read-out: IC50, activity toward kinase FGFR
T10 construct: P1351.pET N6 BI-PTP FGFR A458-E765-X C488A, C584S; made in house; host or cells: E. coli (PTP1B co-expressed)

Ret = molecular target: T11, Ret (Homo sapiens, UniProt P07949); assay: AlphaScreen kinase assay, Ret; conditions: read-out: IC50, activity toward kinase Ret
T11 construct: P1378.pET-SF BI-PTP RET H661-R1012 HIS; made in house
T11 sequence (P07949 with tags, fused parts or gaps): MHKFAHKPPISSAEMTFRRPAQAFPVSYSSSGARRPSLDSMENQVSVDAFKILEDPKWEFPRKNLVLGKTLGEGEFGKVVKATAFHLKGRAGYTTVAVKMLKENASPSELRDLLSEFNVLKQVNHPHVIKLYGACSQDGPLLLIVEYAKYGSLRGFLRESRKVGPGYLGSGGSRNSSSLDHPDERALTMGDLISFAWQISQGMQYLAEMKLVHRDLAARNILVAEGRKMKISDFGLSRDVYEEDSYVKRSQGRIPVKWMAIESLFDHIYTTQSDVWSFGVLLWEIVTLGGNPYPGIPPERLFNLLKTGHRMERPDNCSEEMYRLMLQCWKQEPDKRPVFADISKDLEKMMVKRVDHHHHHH

Pyk2 = molecular target: T12, Pyk2 (Homo sapiens, UniProt Q14289); assay: AlphaScreen kinase assay, Pyk2; conditions: read-out: IC50, activity toward kinase Pyk2
T12 construct: purchased Upstate Biotechnology
T12 sequence (Q14289 whole entry): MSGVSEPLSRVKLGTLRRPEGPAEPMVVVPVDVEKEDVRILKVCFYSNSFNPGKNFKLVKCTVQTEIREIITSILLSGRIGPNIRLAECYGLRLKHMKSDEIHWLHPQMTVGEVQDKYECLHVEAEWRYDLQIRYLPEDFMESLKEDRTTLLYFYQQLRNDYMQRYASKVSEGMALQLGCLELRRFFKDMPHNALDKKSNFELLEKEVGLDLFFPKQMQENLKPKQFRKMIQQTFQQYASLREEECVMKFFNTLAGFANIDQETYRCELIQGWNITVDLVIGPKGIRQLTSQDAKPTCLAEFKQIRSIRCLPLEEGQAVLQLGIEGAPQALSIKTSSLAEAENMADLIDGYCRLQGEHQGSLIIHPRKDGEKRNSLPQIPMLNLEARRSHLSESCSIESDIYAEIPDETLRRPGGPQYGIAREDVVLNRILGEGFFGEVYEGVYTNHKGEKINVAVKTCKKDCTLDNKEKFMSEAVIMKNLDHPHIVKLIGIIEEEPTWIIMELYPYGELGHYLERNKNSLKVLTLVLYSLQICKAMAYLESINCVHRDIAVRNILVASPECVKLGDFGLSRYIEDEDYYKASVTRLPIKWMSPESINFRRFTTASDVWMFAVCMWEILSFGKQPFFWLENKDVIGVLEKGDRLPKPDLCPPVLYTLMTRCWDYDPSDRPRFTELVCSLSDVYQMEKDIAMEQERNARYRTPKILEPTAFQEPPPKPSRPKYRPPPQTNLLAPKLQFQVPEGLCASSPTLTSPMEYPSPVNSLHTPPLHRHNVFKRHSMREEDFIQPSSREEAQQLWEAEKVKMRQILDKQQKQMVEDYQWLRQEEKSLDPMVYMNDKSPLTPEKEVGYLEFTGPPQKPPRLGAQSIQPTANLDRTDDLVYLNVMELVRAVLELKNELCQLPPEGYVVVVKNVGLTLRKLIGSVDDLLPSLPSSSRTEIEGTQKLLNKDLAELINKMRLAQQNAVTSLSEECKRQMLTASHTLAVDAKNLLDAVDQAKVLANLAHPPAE
Experimental: AlphaScreen assays were done using compounds dissolved in DMSO to a concentration of 20 mM. The compounds were diluted accordingly to the desired final concentrations in each sample well, using 1:3 serial dilution for a total of 8 concentration points. Plates were prepared such that each kinase reaction is 20 μl in 1× kinase buffer, 5% DMSO and 10 μM ATP. After incubation of the kinase reaction for 1 hour at room temperature, 5 μl of donor beads in stop buffer (50 mM EDTA in 1× kinase buffer) was added, the sample was mixed and incubated for 20 minutes at room temperature before adding 5 μl of acceptor beads in stop buffer. The samples were incubated for 60 minutes at room temperature and the signal per well was read on AlphaQuest reader.

Fak = molecular target: T13, Fak (Homo sapiens, UniProt Q05397); assay: AlphaScreen kinase assay, Fak; conditions: read-out: IC50, activity toward kinase Fak
T13 construct: P1358.pFastBacHtb FAK S411-Q686-X; His6 with pFastBacHTb leader (TEV site) (N); made in house; host or cells: Sf9 (baculovirus)

Btk = molecular target: T14, Btk (Homo sapiens, UniProt Q06187); assay: Z'-Lyte FRET kinase assay (Invitrogen), Btk; conditions: read-out: IC50, activity toward kinase Btk
T14 construct: purchased Invitrogen (assay run by Invitrogen)

Measured: IC50

Clc1ccc(Nc2cnc3[nH]ccc3c2)cc1 [Compound P-1082]
≤ 10 µM: Jnk3 | Kit | Flt1 | Akt3 | B-Raf V600E

c1cc2cc(Nc3ccc4c(c3)OCCO4)cnc2[nH]1 [Compound P-1022]
≤ 10 µM: Jnk3 | Akt3 | B-Raf V600E

CCOC(c1ccc(N(Cc2ccc(Cl)cc2)C(=O)OC(C)(C)C)nc1)c1c[nH]c2ncccc12 (stereo not drawn) [Compound P-1139]
≤ 10 µM: Akt3 | B-Raf V600E

COc1ccc(-c2c[nH]c3ncccc23)cc1OC1CCCC1 [Compound P-0573]
≤ 10 µM: MAP4K4 | Akt3 | B-Raf V600E

COc1ccc(S(=O)(=O)Nc2ccc(F)c(C(=O)c3c[nH]c4ncccc34)c2F)cc1 [Compound P-0958, N-[2,4-Difluoro-3-(1H-pyrrolo[2,3-b]pyridine-3-carbonyl)-phenyl]-4-methoxy-benzenesulfonamide]
not listed: Jnk3 | Ret | Pyk2 | Fak | Btk
≤ 10 µM: all other assays above

c1cc(Nc2ccc(-c3cnco3)cc2)c2cc[nH]c2n1 [Compound P-1147]
≤ 10 µM: Flt1 | Akt3

Fc1ccc(Nc2ccnc3[nH]ccc23)cc1 [Compound P-1145]
≤ 10 µM: c-Raf-1 | Akt3

CCCc1ccc(Nc2cnc3[nH]ccc3c2)cc1 [Compound P-1043]
≤ 10 µM: Akt3 | B-Raf V600E

COc1cccc(C(=O)c2c[nH]c3nccc(-c4cccc(C(N)=O)c4)c23)c1 [Compound P-0329]
≤ 10 µM: Ret | Akt3 | FGFR1

CCCOc1ccc(Nc2cnc3[nH]ccc3c2)cc1 [Compound P-1010]
≤ 10 µM: Jnk3 | Kit | Pyk2 | Flt1 | Src | Akt3 | B-Raf V600E

CCN(CC)c1ccc(Nc2ccnc3[nH]ccc23)cc1 [Compound P-0866]
≤ 10 µM: B-Raf | Kit | Pyk2 | c-Raf-1 | Flt1 | Src | Akt3 | B-Raf V600E

CCOc1ccc(Nc2cnc3[nH]ccc3c2)cc1 [Compound P-1018]
≤ 10 µM: Jnk3 | Kit | Pyk2 | Flt1 | Akt3 | FGFR1 | B-Raf V600E

CCCS(=O)(=O)Nc1ccc(F)c(Cc2c[nH]c3ncc(C(C)C)cc23)c1F [Compound P-1288]
≤ 10 µM: B-Raf | Fak | Pyk2 | c-Raf-1 | Jnk1 | Src | Akt3 | FGFR1 | B-Raf V600E

NC(=O)c1cccc(-c2cnc3[nH]cc(C(=O)c4ccc(O)cc4F)c3c2)c1 [Compound P-1459]
≤ 10 µM: B-Raf | Fak | Btk | Jnk1 | Src | Fms | Akt3 | FGFR1 | B-Raf V600E

CN(C)c1ccc(Nc2ccnc3[nH]ccc23)cc1 [Compound P-0890]
≤ 10 µM: c-Raf-1 | Akt3

Fc1cccc(Nc2ccnc3[nH]ccc23)c1 [Compound P-1047]
≤ 10 µM: c-Raf-1 | Akt3

CC(=O)c1cccc(Nc2ccnc3[nH]ccc23)c1 [Compound P-1027]
≤ 10 µM: B-Raf | c-Raf-1 | Flt1 | Akt3 | FGFR1

O=C(NCc1ccccc1)c1ccc(-c2c[nH]c3ncccc23)cc1 [Compound P-0278]
≤ 10 µM: Flt1 | Akt3

Clc1cccc(Nc2ccnc3[nH]ccc23)c1 [Compound P-0924]
≤ 10 µM: B-Raf | Kit | Pyk2 | c-Raf-1 | Akt3

CN(C)c1cccc(Nc2ccnc3[nH]ccc23)c1 [Compound P-0861]
≤ 10 µM: B-Raf | Kit | Pyk2 | c-Raf-1 | Akt3 | B-Raf V600E

COc1ccc(Nc2cnc3[nH]ccc3c2)cc1Cl [Compound P-1021]
≤ 10 µM: Jnk3 | Kit | Flt1 | Jnk1 | Src | Akt3 | FGFR1 | B-Raf V600E

O=C(c1c(F)ccc(NS(=O)(=O)N2CCCCC2)c1F)c1c[nH]c2ncccc12 [Compound P-0952, Piperidine-1-sulfonic acid [2,4-difluoro-3-(1H-pyrrolo[2,3-b]pyridine-3-carbonyl)-phenyl]-amide]
≤ 10 µM: B-Raf | Kit | c-Raf-1 | Src | Fms | Akt3 | FGFR1 | B-Raf V600E

COC(c1ccc(NCc2ccc(Cl)cc2)nc1)c1c[nH]c2ncccc12 (stereo not drawn) [Compound P-0307]
≤ 10 µM: B-Raf | Ret | c-Raf-1 | Akt3 | B-Raf V600E

COc1ccc(Nc2cnc3[nH]ccc3c2)cc1 [Compound P-1095]
≤ 10 µM: Akt3

c1ccc(Nc2ccnc3[nH]ccc23)cc1 [Compound P-1224]
≤ 10 µM: Akt3

Clc1ccc(Nc2ccnc3[nH]ccc23)cc1 [Compound P-0978]
≤ 10 µM: B-Raf | Kit | Pyk2 | c-Raf-1 | Akt3

From US8415469B2, “Compounds and methods for kinase modulation, and indications therefor” (Plexxikon Inc., priority 2005, dated 2013)
